# Measured values from patent publication US20250145665A1, “MACROCYCLIC PEPTIDES USEFUL AS MODULATORS OF TNF ALPHA” (Bristol-Myers Squibb Company, priority 2023, published 2025).
# Starred links: 1 amine or outer side, 2 acyl side, 3 side chain; linkers in the order of their positions; H or OH if unused. Positions of bridges follow the written chain, without caps; N, C: chain ends. Non-standard residues stand in square brackets, D forms with d. Residues, ends and D or L forms follow the SMILES beside them. Bip(4'-NHAc) = CC(=O)Nc1ccc(-c2ccc(C[C@H](N)C(=O)O)cc2)cc1; Ala(morpholin-4-yl) = N[C@@H](CN1CCOCC1)C(=O)O; Phe(3-CONH2) = NC(=O)c1cccc(C[C@H](N)C(=O)O)c1; X59 = O=C([C@H](Cc1c(F)cc(F)cc1F)N[*:1])[*:2]; Phe(4-CH2NH2) = NCc1ccc(C[C@H](N)C(=O)O)cc1; Bip = N[C@@H](Cc1ccc(-c2ccccc2)cc1)C(=O)O; Phe(4-F) = N[C@@H](Cc1ccc(F)cc1)C(=O)O; Val(3-OH) = CC(C)(O)[C@H](N)C(=O)O; h4Pal = N[C@@H](CCc1ccncc1)C(=O)O; 2Pal = N[C@@H](Cc1ccccn1)C(=O)O; 3Pal = N[C@@H](Cc1cccnc1)C(=O)O; 4Pal = N[C@@H](Cc1ccncc1)C(=O)O; hLeu = CC(C)CC[C@H](N)C(=O)O; Hpra = C#CCC[C@H](N)C(=O)O; Sar = CNCC(=O)O
# Target: TNFα (Homo sapiens, UniProt P01375)
# Sequence (P01375 77-233 limits assumed): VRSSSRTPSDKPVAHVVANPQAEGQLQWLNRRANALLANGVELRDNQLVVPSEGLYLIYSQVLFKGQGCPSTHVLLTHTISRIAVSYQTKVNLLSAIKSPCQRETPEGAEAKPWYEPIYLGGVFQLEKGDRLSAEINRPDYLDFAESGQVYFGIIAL
# Assay: TNF-Induced HEK-Blue Assay
# Type: cell-based
# Conditions: HEK-Blue-CD40L cells, NF-kB-driven secreted alkaline phosphatase reporter; TNFα 0.5 ng/ml; 18 h; read-out: TNF induced HEK-Blue assay IC50 value
smiles,measurement,value
CC(C)C[C@@H]1NC(=O)[C@H](CCCNC(=N)N)NC(=O)[C@H](CC(C)C)NC(=O)[C@@H]2CCCN2C(=O)[C@H](C(C)C)NC(=O)[C@H](CCCNC(=N)N)NC(=O)[C@H](CC(=O)O)NC(=O)[C@@H]2CCCN2C(=O)CN(C)C(=O)[C@H](Cc2ccc(-c3ccccc3)cc2)NC(=O)[C@H](Cc2ccc(-c3ccccc3)cc2)NC(=O)[C@H](Cc2ccccc2)NC(=O)CSC[C@@H](C(=O)NCC(N)=O)NC1=O [Example 21] ({CH2CO}-F[Bip][Bip][Sar]PDRVPLRLCG-NH2; thioether N-13),IC50,200 to 2000 nM
CC(C)C[C@@H]1NC(=O)[C@H](CCCNC(=N)N)NC(=O)[C@H](C(C)C)NC(=O)[C@@H]2CCCN2C(=O)[C@H](Cc2ccc(CN)cc2)NC(=O)[C@H](CCCNC(=N)N)NC(=O)[C@H](CC(=O)O)NC(=O)[C@@H]2CCCN2C(=O)CN(C)C(=O)[C@H](Cc2ccc(-c3ccccc3)cc2)NC(=O)[C@H](Cc2ccc(-c3ccccc3)cc2)NC(=O)[C@H](Cc2ccccc2)NC(=O)CSC[C@@H](C(=O)NCC(N)=O)NC1=O [Example 22] ({CH2CO}-F[Bip][Bip][Sar]PDR[Phe(4-CH2NH2)]PVRLCG-NH2; thioether N-13),IC50,200 to 2000 nM
CC(C)C[C@@H]1NC(=O)[C@H](CCCNC(=N)N)NC(=O)[C@H](C(C)C)NC(=O)[C@@H]2CCCN2C(=O)[C@H](Cc2ccc(F)cc2)NC(=O)[C@H](CCCNC(=N)N)NC(=O)[C@H](CC(=O)O)NC(=O)[C@@H]2CCCN2C(=O)CN(C)C(=O)[C@H](Cc2ccc(-c3ccccc3)cc2)NC(=O)[C@H](Cc2ccc(-c3ccccc3)cc2)NC(=O)[C@H](Cc2ccccc2)NC(=O)CSC[C@@H](C(=O)NCC(N)=O)NC1=O [Example 23] ({CH2CO}-F[Bip][Bip][Sar]PDR[Phe(4-F)]PVRLCG-NH2; thioether N-13),IC50,200 to 2000 nM
CC(C)C[C@@H]1NC(=O)[C@H](CCCNC(=N)N)NC(=O)[C@H](C(C)C)NC(=O)[C@@H]2CCCN2C(=O)[C@H](CCc2ccncc2)NC(=O)[C@H](CCCNC(=N)N)NC(=O)[C@H](CC(=O)O)NC(=O)[C@@H]2CCCN2C(=O)CN(C)C(=O)[C@H](Cc2ccc(-c3ccccc3)cc2)NC(=O)[C@H](Cc2ccc(-c3ccccc3)cc2)NC(=O)[C@H](Cc2ccccc2)NC(=O)CSC[C@@H](C(=O)NCC(N)=O)NC1=O [Example 24] ({CH2CO}-F[Bip][Bip][Sar]PDR[h4Pal]PVRLCG-NH2; thioether N-13),IC50,200 to 2000 nM
CC(C)C[C@@H]1NC(=O)[C@H](CCCNC(=N)N)NC(=O)[C@H](C(C)C)NC(=O)[C@@H]2CCCN2C(=O)[C@H](Cc2ccncc2)NC(=O)[C@H](CCCNC(=N)N)NC(=O)[C@H](CC(=O)O)NC(=O)[C@@H]2CCCN2C(=O)CN(C)C(=O)[C@H](Cc2ccc(-c3ccccc3)cc2)NC(=O)[C@H](Cc2ccc(-c3ccccc3)cc2)NC(=O)[C@H](Cc2ccccc2)NC(=O)CSC[C@@H](C(=O)NCC(N)=O)NC1=O [Example 25] ({CH2CO}-F[Bip][Bip][Sar]PDR[4Pal]PVRLCG-NH2; thioether N-13),IC50,200 to 2000 nM
CC(C)C[C@@H]1NC(=O)[C@H](CCCNC(=N)N)NC(=O)[C@H](C(C)C)NC(=O)[C@@H]2CCCN2C(=O)[C@H](Cc2cccnc2)NC(=O)[C@H](CCCNC(=N)N)NC(=O)[C@H](CC(=O)O)NC(=O)[C@@H]2CCCN2C(=O)CN(C)C(=O)[C@H](Cc2ccc(-c3ccccc3)cc2)NC(=O)[C@H](Cc2ccc(-c3ccccc3)cc2)NC(=O)[C@H](Cc2ccccc2)NC(=O)CSC[C@@H](C(=O)NCC(N)=O)NC1=O [Example 26] ({CH2CO}-F[Bip][Bip][Sar]PDR[3Pal]PVRLCG-NH2; thioether N-13),IC50,200 to 2000 nM
CC(C)C[C@@H]1NC(=O)[C@H](CCCNC(=N)N)NC(=O)[C@H](C(C)C)NC(=O)[C@@H]2CCCN2C(=O)[C@H](C(C)C)NC(=O)[C@H](CCCNC(=N)N)NC(=O)[C@H](CC(=O)O)NC(=O)[C@@H]2CCCN2C(=O)CN(C)C(=O)[C@H](Cc2ccc(-c3ccccc3)cc2)NC(=O)[C@H](Cc2ccc(-c3ccccc3)cc2)NC(=O)[C@H](C(C)(C)O)NC(=O)CSC[C@@H](C(=O)NCC(N)=O)NC1=O [Example 27] ({CH2CO}-[Val(3-OH)][Bip][Bip][Sar]PDRVPVRLCG-NH2; thioether N-13),IC50,50 to 200 nM
CC(C)CC[C@@H]1NC(=O)CSC[C@@H](C(=O)NCC(N)=O)NC(=O)[C@H](CC(C)C)NC(=O)[C@H](CCCNC(=N)N)NC(=O)[C@H](C(C)C)NC(=O)[C@@H]2CCCN2C(=O)[C@H](C(C)C)NC(=O)[C@H](CCCNC(=N)N)NC(=O)[C@H](CC(=O)O)NC(=O)[C@@H]2CCCN2C(=O)CN(C)C(=O)[C@H](Cc2ccc(-c3ccccc3)cc2)NC(=O)[C@H](Cc2ccc(-c3ccccc3)cc2)NC1=O [Example 28] ({CH2CO}-[hLeu][Bip][Bip][Sar]PDRVPVRLCG-NH2; thioether N-13),IC50,200 to 2000 nM
CC(C)C[C@@H]1NC(=O)[C@H](CCCNC(=N)N)NC(=O)[C@H](C(C)C)NC(=O)[C@@H]2CCCN2C(=O)[C@H](C(C)C)NC(=O)[C@H](CCCNC(=N)N)NC(=O)[C@H](CC(=O)O)NC(=O)[C@@H]2CCCN2C(=O)CN(C)C(=O)[C@H](Cc2ccc(-c3ccccc3)cc2)NC(=O)[C@H](Cc2ccc(-c3ccccc3)cc2)NC(=O)[C@H](Cc2cccnc2)NC(=O)CSC[C@@H](C(=O)NCC(N)=O)NC1=O [Example 29] ({CH2CO}-[3Pal][Bip][Bip][Sar]PDRVPVRLCG-NH2; thioether N-13),IC50,200 to 2000 nM
CC(C)C[C@@H]1NC(=O)[C@H](CCCNC(=N)N)NC(=O)[C@H](C(C)C)NC(=O)[C@@H]2CCCN2C(=O)[C@H](C(C)C)NC(=O)[C@H](CCCNC(=N)N)NC(=O)[C@H](CC(=O)O)NC(=O)[C@@H]2CCCN2C(=O)CN(C)C(=O)[C@H](Cc2ccc(-c3ccccc3)cc2)NC(=O)[C@H](Cc2ccc(-c3ccccc3)cc2)NC(=O)[C@H](Cc2ccccn2)NC(=O)CSC[C@@H](C(=O)NCC(N)=O)NC1=O [Example 30] ({CH2CO}-[2Pal][Bip][Bip][Sar]PDRVPVRLCG-NH2; thioether N-13),IC50,200 to 2000 nM
CC(C)C[C@@H]1NC(=O)[C@H](CCCNC(=N)N)NC(=O)[C@H](C(C)C)NC(=O)[C@@H]2CCCN2C(=O)[C@H](C(C)C)NC(=O)[C@H](CCCNC(=N)N)NC(=O)[C@H](CC(=O)O)NC(=O)[C@@H]2CCCN2C(=O)CN(C)C(=O)[C@H](Cc2ccc(-c3ccccc3)cc2)NC(=O)[C@H](Cc2ccc(-c3ccccc3)cc2)NC(=O)[C@H](Cc2c(F)cc(F)cc2F)NC(=O)CSC[C@@H](C(=O)NCC(N)=O)NC1=O [Example 31] ({CH2CO}-[X59][Bip][Bip][Sar]PDRVPVRLCG-NH2; thioether N-13),IC50,200 to 2000 nM
CC(C)C[C@@H]1NC(=O)[C@H](CCCNC(=N)N)NC(=O)[C@H](C(C)C)NC(=O)[C@@H]2CCCN2C(=O)[C@H](C(C)C)NC(=O)[C@H](CCCNC(=N)N)NC(=O)[C@H](CC(=O)O)NC(=O)[C@@H]2CCCN2C(=O)CN(C)C(=O)[C@H](Cc2ccc(-c3ccccc3)cc2)NC(=O)[C@H](Cc2ccc(-c3ccccc3)cc2)NC(=O)[C@H](CN2CCOCC2)NC(=O)CSC[C@@H](C(=O)NCC(N)=O)NC1=O [Example 32] ({CH2CO}-[Ala(morpholin-4-yl)][Bip][Bip][Sar]PDRVPVRLCG-NH2; thioether N-13),IC50,50 to 200 nM
C#CCC[C@@H]1NC(=O)[C@H](CCCNC(=N)N)NC(=O)[C@H](CC(=O)O)NC(=O)[C@@H]2CCCN2C(=O)CN(C)C(=O)[C@H](Cc2ccc(-c3ccccc3)cc2)NC(=O)[C@H](Cc2ccc(-c3ccccc3)cc2)NC(=O)[C@H](Cc2ccccc2)NC(=O)CSC[C@@H](C(=O)NCC(N)=O)NC(=O)[C@H](CC(C)C)NC(=O)[C@H](CCCNC(=N)N)NC(=O)[C@H](C(C)C)NC(=O)[C@@H]2CCCN2C1=O [Example 33] ({CH2CO}-F[Bip][Bip][Sar]PDR[Hpra]PVRLCG-NH2; thioether N-13),IC50,200 to 2000 nM
CC(C)C[C@@H]1NC(=O)[C@H](Cc2ccccn2)NC(=O)[C@H](C(C)C)NC(=O)[C@@H]2CCCN2C(=O)[C@H](C(C)C)NC(=O)[C@H](CCCNC(=N)N)NC(=O)[C@H](CC(=O)O)NC(=O)[C@@H]2CCCN2C(=O)CN(C)C(=O)[C@H](Cc2ccc(-c3ccccc3)cc2)NC(=O)[C@H](Cc2ccc(-c3ccccc3)cc2)NC(=O)[C@H](Cc2ccccc2)NC(=O)CSC[C@@H](C(=O)NCC(N)=O)NC1=O [Example 34] ({CH2CO}-F[Bip][Bip][Sar]PDRVPV[2Pal]LCG-NH2; thioether N-13),IC50,200 to 2000 nM
CC(C)C[C@@H]1NC(=O)[C@H](CCCNC(=N)N)NC(=O)[C@H](C(C)C)NC(=O)[C@@H]2CCCN2C(=O)[C@H](C(C)C)NC(=O)[C@H](CCCNC(=N)N)NC(=O)[C@H](CC(=O)O)NC(=O)[C@@H]2CCCN2C(=O)CN(C)C(=O)[C@H](Cc2ccc(-c3ccccc3)cc2)NC(=O)[C@H](Cc2ccc(-c3ccccc3)cc2)NC(=O)[C@H](Cc2cccc(C(N)=O)c2)NC(=O)CSC[C@@H](C(=O)NCC(N)=O)NC1=O [Example 35] ({CH2CO}-[Phe(3-CONH2)][Bip][Bip][Sar]PDRVPVRLCG-NH2; thioether N-13),IC50,200 to 2000 nM
CC(C)C[C@@H]1NC(=O)[C@H](Cc2ccc(CN)cc2)NC(=O)[C@H](C(C)C)NC(=O)[C@@H]2CCCN2C(=O)[C@H](C(C)C)NC(=O)[C@H](CCCNC(=N)N)NC(=O)[C@H](CC(=O)O)NC(=O)[C@@H]2CCCN2C(=O)CN(C)C(=O)[C@H](Cc2ccc(-c3ccccc3)cc2)NC(=O)[C@H](Cc2ccc(-c3ccccc3)cc2)NC(=O)[C@H](Cc2ccccc2)NC(=O)CSC[C@@H](C(=O)NCC(N)=O)NC1=O [Example 36] ({CH2CO}-F[Bip][Bip][Sar]PDRVPV[Phe(4-CH2NH2)]LCG-NH2; thioether N-13),IC50,200 to 2000 nM
CC(=O)Nc1ccc(-c2ccc(C[C@@H]3NC(=O)[C@H](Cc4ccc(-c5ccccc5)cc4)NC(=O)[C@H](Cc4ccccc4)NC(=O)CSC[C@@H](C(=O)NCC(N)=O)NC(=O)[C@H](CC(C)C)NC(=O)[C@H](CCCNC(=N)N)NC(=O)[C@H](C(C)C)NC(=O)[C@@H]4CCCN4C(=O)[C@H](C(C)C)NC(=O)[C@H](CCCNC(=N)N)NC(=O)[C@H](CC(=O)O)NC(=O)[C@@H]4CCCN4C(=O)CN(C)C3=O)cc2)cc1 [Example 37] ({CH2CO}-F[Bip][Bip(4'-NHAc)][Sar]PDRVPVRLCG-NH2; thioether N-13),IC50,200 to 2000 nM
